# Where “and” joins values, the source holds several entries; their conditions need not be identical. Equal values may be shown once. Inconclusive results and toxic doses are left out.
# Tested on: CD2F1 mice, L1210 leukemia ip, survival T/C
# Experiment: NCI In Vivo Anticancer Drug Screen. Data for tumor model L1210 Leukemia (intraperitoneal) in CD2F1 (CDF1) mice
# Settings: higher = longer survival
# Summary of the method: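 Tumor-bearing mice (transplanted tumor) were split into treated and vehicle control groups, and the measured endpoint of each treated group was divided by that of its vehicle controls.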
# [1] = endpoint: mean survival time, dose: 100.0 mg/kg/injection, schedule: Q01DX009 (ip), vehicle: saline with Tween-80
# [2] = endpoint: mean survival time, dose: 100.0 mg/kg/injection, schedule: Q04DX003 (ip), vehicle: saline with Tween-80
# [3] = endpoint: mean survival time, dose: 200.0 mg/kg/injection, schedule: Q01DX009 (ip), vehicle: saline with Tween-80
# [4] = endpoint: mean survival time, dose: 200.0 mg/kg/injection, schedule: Q04DX003 (ip), vehicle: saline with Tween-80
# [5] = endpoint: mean survival time, dose: 400.0 mg/kg/injection, schedule: Q01DX009 (ip), vehicle: saline with Tween-80
# [6] = endpoint: mean survival time, dose: 400.0 mg/kg/injection, schedule: Q04DX003 (ip), vehicle: saline with Tween-80
# [7] = endpoint: mean survival time, dose: 50.0 mg/kg/injection, schedule: Q01DX009 (ip), vehicle: saline with Tween-80
# [8] = endpoint: mean survival time, dose: 100.0 mg/kg/injection, schedule: Q01DX001 (ip), vehicle: saline with Tween-80
# [9] = endpoint: mean survival time, dose: 200.0 mg/kg/injection, schedule: Q01DX001 (ip), vehicle: saline with Tween-80
# [10] = endpoint: mean survival time, dose: 25.0 mg/kg/injection, schedule: Q01DX009 (ip), vehicle: Klucel (hydroxypropylcellulose) (HPC)
# [11] = endpoint: mean survival time, dose: 400.0 mg/kg/injection, schedule: Q01DX001 (ip), vehicle: saline with Tween-80
# [12] = endpoint: mean survival time, dose: 12.5 mg/kg/injection, schedule: Q01DX009 (ip), vehicle: saline with Tween-80
# [13] = endpoint: mean survival time, dose: 25.0 mg/kg/injection, schedule: Q01DX009 (ip), vehicle: saline with Tween-80
smiles,measurement,setting,value
C1=CC23CC(c4ccccc42)C2c4ccccc4C23C=C1 (stereo not drawn),T/C,[1],101 % of control
same,T/C,[2],93 % of control
same,T/C,[3],101 % of control
same,T/C,[4],95 % of control
same,T/C,[5],95 % of control
same,T/C,[6],93 % of control
CC(C)(CCC(=O)c1ccccc1)C(=O)O,T/C,[2],90 % of control
same,T/C,[4],94 % of control
same,T/C,[6],87 % of control
CNc1cc([N+](=O)[O-])ccc1Br,T/C,"endpoint: mean survival time, dose: 100.0 mg/kg/injection, schedule: Q04DX002 (ip), vehicle: other",91 % of control
same,T/C,"endpoint: mean survival time, dose: 200.0 mg/kg/injection, schedule: Q04DX002 (ip), vehicle: other",100 % of control
same,T/C,"endpoint: mean survival time, dose: 400.0 mg/kg/injection, schedule: Q04DX002 (ip), vehicle: other",95 % of control
c1ccc(-c2cc(-c3cc(-c4ccccc4)on3)no2)cc1,T/C,[7],91 % of control
same,T/C,[8],101 % of control
same,T/C,[1],94 % of control
same,T/C,[9],100 % of control
same,T/C,[3],96 % of control
S=C(NC1CCCCC1)N1CCC(CCCC2CCN(C(=S)NC3CCCCC3)CC2)CC1,T/C,[2],87 % of control
same,T/C,[4],94 % of control
same,T/C,[6],102 % of control
CCNCc1cc(Nc2cc(C)nc(/N=C(\N)Nc3ccc(Cl)c(Cl)c3)n2)ccc1OC,T/C,[10],100 % of control
O=C(c1ccc([N+](=O)[O-])cc1)C(Br)C(Br)c1ccncc1 (stereo not drawn),T/C,[2],95 % of control
same,T/C,[4],97 % of control
same,T/C,[6],103 % of control
CNC(=O)Oc1ccc(S(=O)(=O)c2ccc(OC(=O)NC)cc2)cc1,T/C,"endpoint: median survival time, dose: 12.5 mg/kg/injection, schedule: Q01DX009 (ip), vehicle: saline with Tween-80",103 % of control
same,T/C,"endpoint: median survival time, dose: 25.0 mg/kg/injection, schedule: Q01DX009 (ip), vehicle: saline with Tween-80",115 % of control and 112 % of control
same,T/C,"endpoint: median survival time, dose: 43.0 mg/kg/injection, schedule: Q01DX005 (ip), vehicle: saline with Tween-80",113 % of control
same,T/C,"endpoint: median survival time, dose: 43.0 mg/kg/injection, schedule: Q01DX009 (ip), vehicle: saline with Tween-80",102 % of control
same,T/C,"endpoint: median survival time, dose: 50.0 mg/kg/injection, schedule: Q01DX009 (ip), vehicle: saline with Tween-80",120 % of control
same,T/C,"endpoint: median survival time, dose: 72.0 mg/kg/injection, schedule: Q01DX005 (ip), vehicle: saline with Tween-80",108 % of control and 109 % of control
same,T/C,"endpoint: median survival time, dose: 72.0 mg/kg/injection, schedule: Q01DX009 (ip), vehicle: saline with Tween-80",101 % of control
same,T/C,"endpoint: median survival time, dose: 100.0 mg/kg/injection, schedule: Q01DX009 (ip), vehicle: saline with Tween-80",122 % of control
same,T/C,"endpoint: median survival time, dose: 120.0 mg/kg/injection, schedule: Q01DX005 (ip), vehicle: saline with Tween-80",109 % of control and 112 % of control
same,T/C,"endpoint: median survival time, dose: 120.0 mg/kg/injection, schedule: Q01DX009 (ip), vehicle: saline with Tween-80",106 % of control
same,T/C,"endpoint: median survival time, dose: 200.0 mg/kg/injection, schedule: Q01DX005 (ip), vehicle: saline with Tween-80",104 % of control and 109 % of control
same,T/C,"endpoint: median survival time, dose: 200.0 mg/kg/injection, schedule: Q01DX009 (ip), vehicle: saline with Tween-80",151 % of control
same,T/C,"endpoint: median survival time, dose: 333.0 mg/kg/injection, schedule: Q01DX005 (ip), vehicle: saline with Tween-80",109 % of control
Cc1sc2ccccc2[n+]1C,T/C,"endpoint: mean survival time, dose: 12.5 mg/kg/injection, schedule: Q01DX009 (ip), vehicle: Klucel (hydroxypropylcellulose) (HPC)",93 % of control
same,T/C,[10],95 % of control
same,T/C,"endpoint: mean survival time, dose: 50.0 mg/kg/injection, schedule: Q01DX009 (ip), vehicle: Klucel (hydroxypropylcellulose) (HPC)",87 % of control
CN(C)C1C(CO)C(CO)C1(C)C (stereo not drawn),T/C,"endpoint: mean survival time, dose: 50.0 mg/kg/injection, schedule: Q01DX001 (ip), vehicle: saline with Tween-80",98 % of control
same,T/C,[8],97 % of control
same,T/C,[9],98 % of control
same,T/C,[11],97 % of control
O=C(Nc1ccc(S(=O)(=O)N2CCCCC2)cc1)Oc1ccc([N+](=O)[O-])cc1,T/C,"endpoint: mean survival time, dose: 5.0 mg/kg/injection, schedule: Q01DX001 (ip), vehicle: other",97 % of control
same,T/C,"endpoint: mean survival time, dose: 10.0 mg/kg/injection, schedule: Q01DX001 (ip), vehicle: other",108 % of control
same,T/C,"endpoint: mean survival time, dose: 20.0 mg/kg/injection, schedule: Q01DX001 (ip), vehicle: other",100 % of control
same,T/C,"endpoint: mean survival time, dose: 40.0 mg/kg/injection, schedule: Q01DX001 (ip), vehicle: other",100 % of control
same,T/C,"endpoint: mean survival time, dose: 80.0 mg/kg/injection, schedule: Q01DX001 (ip), vehicle: other",96 % of control
CCCCCCCCCCCCCCCCCCCCCC(O)(CC)CC,T/C,[1],97 % of control
same,T/C,[2],94 % of control
same,T/C,[3],94 % of control
same,T/C,[4],94 % of control
same,T/C,[5],100 % of control
same,T/C,[6],95 % of control
O=c1[nH]c2ccc(Br)cc2c(=O)o1,T/C,"endpoint: mean survival time, dose: 100.0 mg/kg/injection, schedule: Q01DX009 (ip), vehicle: saline",104 % of control
same,T/C,"endpoint: mean survival time, dose: 200.0 mg/kg/injection, schedule: Q01DX009 (ip), vehicle: saline",116 % of control
same,T/C,"endpoint: mean survival time, dose: 400.0 mg/kg/injection, schedule: Q01DX009 (ip), vehicle: saline",108 % of control
O=[N+]([O-])c1cc(Br)cc(Br)c1[N+](=O)[O-],T/C,[8],97 % of control
same,T/C,[1],102 % of control
same,T/C,[9],89 % of control
same,T/C,[3],102 % of control
same,T/C,[11],95 % of control
same,T/C,[5],98 % of control
ClC(Cl)(Cl)C1=NCc2nnn(Cc3ccccc3)c2N1,T/C,[12],100 % of control
same,T/C,[13],92 % of control
same,T/C,[7],105 % of control
same,T/C,[1],100 % of control
same,T/C,[3],107 % of control
same,T/C,[5],94 % of control
O=C(O)CC1C=CCC1 (stereo not drawn),T/C,"endpoint: mean survival time, dose: 6.25 mg/kg/injection, schedule: Q04DX003 (ip), vehicle: saline",102 % of control
same,T/C,"endpoint: mean survival time, dose: 12.5 mg/kg/injection, schedule: Q04DX003 (ip), vehicle: saline",97 % of control
same,T/C,"endpoint: mean survival time, dose: 25.0 mg/kg/injection, schedule: Q04DX003 (ip), vehicle: saline",97 % of control
same,T/C,[2],98 % of control
COCC(=O)C(C(C)=O)C(c1ccc2c(c1)OCO2)C(C(C)=O)C(=O)COC (stereo not drawn),T/C,[2],96 % of control
same,T/C,[4],101 % of control
same,T/C,[6],96 % of control
CCC(=O)c1ccccc1N,T/C,[2],90 % of control
same,T/C,[4],105 % of control
same,T/C,[6],97 % of control
OC(c1ccccc1)(c1ccccc1)c1ccncc1,T/C,[12],91 % of control
same,T/C,[13],87 % of control
same,T/C,[7],91 % of control

# Source: PubChem BioAssay AID256 (DTP/NCI, 2004)
